Data as given in patent publication EP0474874B1, “Maillard Reaction inhibitor compositions” (Senju Pharmaceutical Co., Ltd., priority 1990, dated 1991).

Key:
furosine formation = assay: Inhibition of furosine formation (non-enzymatic glycosylation of BSA with glucose, HPLC); assay type: biochemical, bovine; conditions: 5 mM test compound, 20 mg/ml BSA, 50 mM glucose, 50 mM phosphate buffer pH 7.3, 4 weeks at 37 °C
Experimental: Sample solutions as shown below were aseptically prepared from bovine serum albumine (No. A-8022, Sigma)(hereinafter referred to as BSA), 50 mM phosphate buffer solution (pH 7.3) and the test compounds listed in Table 1 and aminoguanidine.
The sample solutions were kept for 4 weeks at 37 °C, and the amount of furosine which was formed by non-enzymatic glycosylation was determined by HPLC according to the method of Schleicher et al. [J. Clin. Biochem., 19:81-87 (1981).] Thus, the sample solutions after reaction were dialyzed, and aliquots of 1 ml were lyophylized and then hydrolyzed by the addition of 1 ml of 6 N hydrochloric acid followed by heating at 100 °C for 20 hours. After removal of hydrochloric acid by evaporation, 1 ml of water was added to each sample, and the samples were subjected to filtration using a filter with the pore size of 0.45 µm. The filtrate was used as the sample for HPLC. ODS-120T (Tosoh Corporation) was used for the column and 7 mM phosphoric acid solution was used as the eluant. The absorbance peak whose ratio of peak area at […] was 3.9/1 was regarded as the peak corresponding to furosine.
Upon the area of the peak of furosine of each sample, the inhibition rate of furosine formation by the test compound was calculated as follows. Inhibition rate (%)=(c-d)÷(c-n)×100 [formula] c; peak area of furosine of the control sample d; peak area of furosine of the test sample n; peak area of furosine of the normal sample

[1] = patient suffering from diabetes mellitus; cited from earlier work
Maillard's reaction = conditions: in vitro; cited from earlier work
[2] = test system: AGE formation in arterial walls; conditions: diabetic rats, in vivo; cited from earlier work

| Compound | Inhibition rate (%) (furosine formation) | further results |
| --- | --- | --- |
| Nc1c(O)cccc1C(=O)O [AB-2, 3-hydroxyanthranilic acid] | 69.4% | – |
| Nc1ccc(C(=O)O)c(O)c1 [AB-5, 4-aminosalicylic acid] | 70.0% | adverse effect upon treatment [1]: developed hypoglycaemic coma |
| Nc1ccc(O)c(C(=O)O)c1 [AB-4, 5-aminosalicylic acid] | 50.7% | – |
| Nc1cc(C(=O)O)ccc1O [AB-7, 3-amino-4-hydroxybenzoic acid] | 60.4% | – |
| Nc1cc([N+](=O)[O-])ccc1C(=O)O [AB-3, 4-nitroanthranilic acid] | 47.6% | – |
| Nc1cccc(C(=O)O)c1O [AB-6, 3-aminosalicylic acid] | 53.4% | – |
| N=C(N)NN [aminoguanidine] | 8.0% | inhibition of Maillard's reaction (Maillard's reaction): inhibits Maillard's reaction in vitro; AGE formation in arterial walls [2]: suppresses AGE formation in arterial walls of diabetic rats in vivo |
| Nc1ccc(O)cc1C(=O)O [AB-1, 5-hydroxyanthranilic acid] | 94.1% | – |
